In patent US4758551A (priority 1986, dated 1988):
Numbered stars: 1 amine (or outer) side, 2 acyl side, 3 side chain; on linkers, the order of the positions; unused ones are H or OH. Peptide text beside a SMILES is read from it. γGlu = O=C(O)[C@H](CCC(=O)[*:2])N[*:1]

How the values were obtained:
[1] = tested on: Male Swiss Webster mice; assay: Induction of glutathionuria by gamma-glutamyl compounds in mice (urinary glutathione); format: in vivo; settings: for Urinary GSH: subcutaneous, 200 mM neutral solution, dose 4 mM per kilogram of body weight, urine collected for 1 hour
Description: Male Swiss Webster mice (20-27 g) were obtained from Taconic Farms (Germantown, N.Y.) and Hilltop Lab Animals (Scottsdale, Pa.).
(§1) The mice were fed ad libitum. Their urinary bladders were emptied by gentle abdominal pressure prior to subcutaneous injection of the gamma-glutamyl amino acids and urine was collected at 15 minute intervals for 1 hour in a tube containing 5 μl of 50% (w/v) 5-sulfosalicyclic acid. Elevated plasma glutathione levels were occasionally found after moderate abdominal pressure was applied to mice. For this reason, studies of urinary and plasma glutathione levels were carried out on different groups of mice.
(§2) Plasma, kidneys and livers were obtained and processed by well known means (see Anderson, M. E. et al, J. Biol. Chem. 255:9530-9533 (1980) and Anderson, M. E. et al, Methods Enzymol. 113:548-555 (1986)) and the concentration of glutathione therein was determined by the GSSG reductase-DTNB recycling assay (see Anderson, M. E. et al, Methods Enzymol. 113:548-555 (1986), Tietze, F., Analytical Biochem. 27:502-522 (1969) and Owens, C. et al, Biochem. J. 94:705-711 (1965)).
The urine samples were treated with 5mM dithiothreitol (pH 7.0) for 1 hour followed by derivatization with 2-vinylpyridine (see Griffith, O. W., Analytical Biochem. 106:207-212 (1980)). The derivatized samples were chromatographed on the amino acid analyzer using lithium citrate buffers (see Benson, J. V. et al, Anal. Biochem. 18:228-240 (1967)). The elution times for the vinylpyridine derivatives of gamma-glutamyl glutathione, gamma-glutamylcysteine, glutathione, cysteinylglycine and cysteine were 120, 163, 165, 220 and 235 minutes, respectively.
*The mice were injected subcutaneously with a 200 mM neutral solution of
the indicated amino acid (dose, 4 mM per kilogram of body weight) or with
an equivalent volume of saline. Urine was collected for 1 hour.

[2] = biological target: T1, purified rat kidney gamma-glutamyl transpeptidase (Rattus norvegicus, UniProt P07314); assay: Gamma-glutamyl transpeptidase activity assay with L-gamma-glutamyl-p-nitroanilide (apparent Khi, Dixon plot); format: biochemical
T1 construct: Highly purified rate kidney gamma-glutamyl transpeptidase was prepared by well known means; from tissue; host or cells: rat kidney
Description: Highly purified rate kidney gamma-glutamyl transpeptidase was prepared by well known means (see Tate, S. S. et al, Methods Enzymol. 113:400-419 (1986)). Bovine and porcine gamma-glutamyl transpeptidase can be obtained from Sigma Chemical Co. (St. Louis, Mo.).
Gamma-glutamyl transpeptidase activity was assayed using L-gamma-glutamyl-p-nitroanilide and the rate of formation of p-nitroaniline at 405 nm at 37° C. was measured (see Orlowski, M. et al, Biochim. Biophys. Acta 73:679-681 (1973)). The 1 ml final volume enzyme reaction mixture employed contained 40 mM Tris-HCl (pH 7.5), 30 or 60 μM L-gamma-glutamyl-p-nitroanilide, 30 or 150 μM gamma-glutamyl amino acid and 0.115 units gamma-glutamyl transpeptidase. Two different concentrations of substrate were employed for kinetic analyses. The reaction was initiated by adding gamma-glutamyl transpeptidase. The absorbance scale was 0.02 or 0.05 to insure that initial rates were obtained. The apparent hydrolysis Ki (Khi) values were determined from a Dixon plot and normalized to the apparent Km value for 6 μM L-gamma-glutamyl-p-nitroanilide (see Thompson, G. A. et al, Biochem. Biophys, Res. Commun. 71:32-36 (1976)).
The values for the apparent Khi for a number of gamma-glutamyl amino acids using purified rat kidney gamma-glutamyl transpeptidase are shown in the Figure. […]

[3] = In vivo conversion of the administered gamma-glutamyl compound
Excerpt: The values for the apparent Khi for a number of gamma-glutamyl amino acids using purified rat kidney gamma-glutamyl transpeptidase are shown in the Figure. These values were plotted against the urinary glutathione obtained in the in vivo studies and a fairly close correlation was found. That is, the apparent affinity of gamma-glutamyl transpeptidase or gamma-glutamyl amino acid substrates varies over about a 6-fold range. In contrast, the affinity for the corresponding free amino acids varies over a range of several hundred (see Tate, S. S. et al, J. Biol. Chem. 249:7593-7602 (1974)).

[4] = tested on: Male Swiss Webster mice; settings: similar protocol (Griffith 1979); cited from earlier work
[5] = tested on: Male Swiss Webster mice; settings: cited from earlier work
[6] = tested on: Male Swiss Webster mice; assay: Glutathione levels of kidney, liver and blood plasma of mice after administration; format: in vivo; settings: experimental period 1 hour
Description: as §1, §2

[7] = biological target: T1, purified rat kidney gamma-glutamyl transpeptidase; settings: free amino acids (Tate 1974); cited from earlier work
[8] = tested on: mice; settings: cited from earlier work
[9] = mice, after administration of the hydrazide

T1 sequence (P07314 1-379 limits assumed): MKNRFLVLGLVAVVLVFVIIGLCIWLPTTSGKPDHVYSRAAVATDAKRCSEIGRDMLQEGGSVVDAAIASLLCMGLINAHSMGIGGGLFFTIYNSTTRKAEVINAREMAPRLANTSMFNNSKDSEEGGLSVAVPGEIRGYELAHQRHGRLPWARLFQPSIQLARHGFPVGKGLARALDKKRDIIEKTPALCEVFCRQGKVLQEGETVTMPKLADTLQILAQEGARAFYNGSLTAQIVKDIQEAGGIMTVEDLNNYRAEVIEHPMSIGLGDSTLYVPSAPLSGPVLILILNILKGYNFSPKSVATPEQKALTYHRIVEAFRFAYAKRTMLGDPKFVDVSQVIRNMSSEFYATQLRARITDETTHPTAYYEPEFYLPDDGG
T1 sequence (P07314 380-568 limits assumed): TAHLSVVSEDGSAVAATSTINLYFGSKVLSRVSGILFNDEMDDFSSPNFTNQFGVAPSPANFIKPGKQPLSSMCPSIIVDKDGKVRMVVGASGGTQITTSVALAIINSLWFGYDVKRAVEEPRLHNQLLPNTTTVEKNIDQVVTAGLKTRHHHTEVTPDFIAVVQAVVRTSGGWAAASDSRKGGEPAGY

| SMILES | Urinary GSH [1] | also measured |
| --- | --- | --- |
| CC[C@H](NC(=O)CC[C@H](N)C(=O)O)C(=O)O | 1.52 ± 0.38 mM | – |
| N[C@@H](CCC(=O)N[C@@H](CSSC[C@H](NC(=O)CC[C@H](N)C(=O)O)C(=O)O)C(=O)O)C(=O)O [(L-Gamma-Glu-- L-Cys)2, (L-gamma-Glu-L-Cys)2] | 5.77 ± 1.05 mM | Urinary GSH ([1]; listed as gamma-glutamylcysteine disulfide): about 6 mM |
| CSCC[C@H](NC(=O)CC[C@@H](N)C(=O)O)C(=O)O [D-Gamma-Glu-- L-Met, D-Gamma-Glu-L-Met] | 0.18 ± 0.05 mM | – |
| N[C@@H](CSSC[C@H](N)C(=O)O)C(=O)O [L-Cystine, reference compound] | < 0.03 mM | – |
| N[C@@H](CCCCNC(=O)CC[C@H](N)C(=O)O)C(=O)O [L-Gamma-- ε-L-Lys, L-Gamma-Glu-ε-L-Lys] | 0.77 ± 0.17 mM | – |
| N[C@@H](CCC(=O)NCC(=O)O)C(=O)O [L-Gamma-Glu-- Gly, L-Gamma-Glu-Gly] | 2.67 ± 0.40 mM | – |
| N[C@@H](CCC(=O)NCC(=O)NCC(=O)O)C(=O)O [L-Gamma-Glu-- Gly--Gly, L-Gamma-Glu-Gly-Gly] (γGlu-Gly-Gly-OH) | 3.29 ± 1.16 mM | gamma-glutamyl glutathione in the urine [1]: significant amounts; urinary gamma-glutamyl cysteine relative to urinary glutathione ([1]; vinylpyridine derivative, amino acid analyzer): about 10% |
| N[C@@H](CCC(=O)N[C@@H](CSSC[C@H](NC(=O)CC[C@H](N)C(=O)O)C(=O)O)C(=O)O)C(=O)O [L-Gamma-Glu-- L-(Cys)2, L-Gamma-Glu-L-(Cys)2] | 2.63 ± 0.33 mM | – |
| C[C@H](NC(=O)CC[C@H](N)C(=O)O)C(=O)O [L-Gamma-Glu-- L-Ala, L-Gamma-Glu-L-Ala] | 5.69 ± 1.26 mM | gamma-glutamyl glutathione in the urine [1]: significant amounts; affinity for / interaction with gamma-glutamyl transpeptidase [2]: much higher affinity |
| N[C@@H](CCC(=O)N[C@@H](CC(=O)O)C(=O)O)C(=O)O [L-Gamma-Glu-- L-Asp, L-Gamma-Glu-L-Asp] | 0.26 ± 0.10 mM | – |
| C[C@H](NC(=O)CC[C@H](NC(=O)CC[C@H](N)C(=O)O)C(=O)O)C(=O)O [L-Gamma-Glu-- L-Gamma-Glu-- L-Ala, L-Gamma-Glu-L-Gamma-Glu-L-Ala] | 5.07 ± 0.73 mM | induction of glutathionuria [1]: induced glutathionuria; in vivo conversion [3]: rapidly converted in vivo to gamma-glutamyl alanine |
| NC(=O)CC[C@H](NC(=O)CC[C@H](N)C(=O)O)C(=O)O [L-Gamma-Glu-- L-Gln, L-Gamma-Glu-L-Gln] | 1.17 ± 0.55 mM | – |
| N[C@@H](CCC(=O)N[C@@H](CCC(=O)O)C(=O)O)C(=O)O [L-Gamma-Glu-- L-Glu, L-Gamma-Glu-L-Glu] | 5.28 ± 1.05 mM | – |
| CC[C@H](C)[C@H](NC(=O)CC[C@H](N)C(=O)O)C(=O)O [L-Gamma-Glu-- L-Ile, L-Gamma-Glu-L-Ile] | 1.00 ± 0.10 mM | – |
| CC(C)C[C@H](NC(=O)CC[C@H](N)C(=O)O)C(=O)O [L-Gamma-Glu-- L-Leu, L-Gamma-Glu-L-Leu] | 0.60 ± 0.07 mM | – |
| CSCC[C@H](NC(=O)CC[C@H](N)C(=O)O)C(=O)O [L-Gamma-Glu-- L-Met, L-Gamma-Glu-L-Met] | 8.54 ± 0.99 mM | – |
| N[C@@H](CCC(=O)N[C@@H](Cc1ccc(O)cc1)C(=O)O)C(=O)O [L-Gamma-Glu-- L-Tyr, L-Gamma-Glu-L-Tyr] | 3.19 ± 0.80 mM | – |
| CC(C)[C@H](NC(=O)CC[C@H](N)C(=O)O)C(=O)O [L-Gamma-Glu-- L-Val, L-Gamma-Glu-L-Val] | 0.49 ± 0.25 mM | – |
| NC(CCC(=O)NNc1ccccc1C(=O)O)C(=O)O [L-gamma-glutamyl-(o-carboxy)phenylhydrazide] | – | glutathione found in the urine [4]: 3.6 to 5.6 mM; plasma glutathione levels ([5]; Griffith 1979): marked increases; decrease in kidney glutathione levels [5, 9]: ~30%; decrease in liver glutathione levels [5, 9]: ~13% |
| NCCCC[C@H](NC(=O)[C@@H](N)CCC(=O)O)C(=O)O [L-glu-L-(α )-lys, reference compound] (H-Glu-Lys-OH) | < 0.03 mM | – |
| C[C@H](NC(=O)[C@@H](N)CCC(=O)O)C(=O)O [L-glu-L-ala, reference compound] (H-Glu-Ala-OH) | < 0.03 mM | – |
| N[C@@H](CCC(=O)O)C(=O)N[C@@H](Cc1ccc(O)cc1)C(=O)O [L-glu-L-tyr, reference compound] (H-Glu-Tyr-OH) | < 0.03 mM | – |
| CC(C)[C@H](NC(=O)[C@@H](N)CCC(=O)O)C(=O)O [L-glu-L-val, reference compound] (H-Glu-Val-OH) | < 0.03 mM | – |
| NC(=O)CC[C@H](N)C(=O)O [L-glutamine, L-(and D-)glutamine, reference compound] | < 0.03 mM | induction of glutathionuria [1]: ineffective; affinity for / interaction with gamma-glutamyl transpeptidase [2]: very poor gamma-glutamyl substrate |
| CSC[C@H](NC(=O)CC[C@H](N)C(=O)O)C(=O)NCC(=O)O [S--Methyl glutathione] | 5.21 ± 1.30 mM | – |
| N[C@@H](CCC(=O)N[C@@H](CS)C(=O)O)C(=O)O [gamma-glutamylcysteine] | – | effect on liver glutathione levels [6]: does not affect; effect on kidney glutathione levels ([5]; Anderson 1983): increases |
| NCCCC[C@H](N)C(=O)O [lysine] | – | acceptor substrate of gamma-glutamyl transpeptidase [7]: extremely poor acceptor substrates |
| NNc1ccccc1C(=O)O [o-carboxyphenylhydrazine] | – | fatal dose [8]: more than 2 mM per kilogram of body weight |
| CC(C)[C@H](N)C(=O)O [valine] | – | acceptor substrate of gamma-glutamyl transpeptidase [7]: extremely poor acceptor substrates |
